Data from patent US8273705B2, “Conversion of apoptotic proteins” (The Burnham Institute, priority 2002, dated 2012).
Where two headings read alike, the source gives them in different places.

Tests used:
TR3 expression [1] = experiment: TR3 expression by Northern blotting in MDA-MB-231 cells; assay type: cell-based; conditions: 3 h, MM11453 and MM11384 10^−6 M, TPA 100 ng/ml, EGF 200 ng/ml
Description: TR3 is also expressed in both estrogen-dependent ZR-75-1 and in estrogen-independent MDA-MB-231 breast cancer cells (Wu et al. 1997 Mol Cell Bio 17:6598-6608). […] Total RNAs were prepared from MDA-MB-231 cells treated with MM1153 (10^−6 M), MM11384 (10^−6M), TPA (100 ng/ml) or EGF (200 ng/ml) for 3 h. and analyzed by Northern blotting.

[2] = system: LNCaP prostate cancer cells; experiment: Colocalization of endogenous TR3 and transfected Bcl-2 in LNCaP cells; assay type: cell-based; conditions: TPA 100 ng/ml, 3 h
Description: D. co-localization in cells—First the interaction of endogenous TR3 and transfected Bcl-2 colocalization was identified in cells. The phorbol ester 12-0-tetradecanoyl phorbol-13-acetate (TPA) induces the expression of endogenous TR3 and its mitochondrial localization in LNCaP prostate cancer cells. LNCaP cells were transfected with Bcl-2 expression vector, treated with or without TPA (100 ng/ml) for 3 h, then immunostained with anti-Bcl-2 antibody (Santa Cruz) followed by Cy5-conjugated secondary antibody (Amersham Biosciences), or with mouse monoclonal anti-TR3 antibody followed by Cy3-conjugated secondary antibody (Sigma). Endogenous TR3 and transfected Bcl-2 were visualized using confocal microscopy and images were overlaid. […] TR3 was not detected prior to TPA treatment. […] In TPA-stimulated cells, the distribution patterns of endogenous TR3 and transfected Bcl-2 overlapped extensively in the cytoplasm, colocalizing with Hsp60, a mitochondria-specific protein.

TR3/Bcl-2 interaction = experiment: Co-IP of endogenous TR3 and Bcl-2 in LNCaP cells; assay type: cell-based; conditions: TPA 3 hours
Description: A. co-immunoprecipitation assays—to identify the interaction between TR3 and Bcl-2, a monoclonal antibody was generated against the ligand-binding domain (GBD) of TR3 for co-immunoprecipitation (Co-IP) assays. LNCaP cells were treated with TPA to induce endogenous TR3 expression for 3 hours. Cell extracts were prepared from TPA-treated and non-treated cells and incubated with mouse monoclonal anti-TR3 antibody. Immunoblotting of immunoprecipitates employed anti-Bcl-2 antibody or rabbit polyclonal anti-TR3 anti-body (Active Motif).

TR3 expression [3] = conditions: human prostate cancer cells; cited from earlier work
MDA-MB-231 cells = experiment: GFP-TR3 subcellular localization by confocal microscopy in MDA-MB-231 cells; assay type: cell-based; conditions: 10^−6 M, 1 hour
Description: Subcellular localization assays—Cells were seeded onto cover-slips in 6-well plates overnight, then transiently transfected with GFP-fusion expression plasmids. After 16 hours, cells were washed with PBS and fixed in 4% paraformaldehyde. For mitochondrial staining, cells were then incubated with anti-Hsp60 goat IgG (Santa Cruz, USA), followed by anti-goat IgG conjugated with Cy3 (Sigma). For cyt c staining, cells were incubated with monoclonal anti-cyt c IgG (PharMingen), followed by anti-mouse IgG conjugated with Cy5 (Amersham). Fluorescent images were collected and analyzed using a MRC-1024 MP laser-scanning confocal microscope (Bio-Rad). Subcellular fractionation assays were performed as described (Li, et al. 2000 Science 289:1159-1164). Briefly, cells (1×10^7 cells) suspended in 0.5 ml hypotonic buffer (5 mM Tris-HCl, pH 7.4, 5 mM KCl, 1.5 mM MgCl2, 0.1 mM EGTA, pH 8.0, and 1 mM DTT) were homogenized and cell extracts were centrifuged at 500×g for 5 min. […]
To study whether the TR3 nuclear-to-mitochondrial targeting pathway also occurs in breast cancer cells, a GFP-TR3 fusion construct was transfected into MDA-MB-231 cells. […] Next, GFP-TR3/ΔDBD was transiently transfected into ZR-75-1 or MDA-MB-231 cells, stained for mitochondria (Hsp60) and cytochrome c (Cyt c), and analyzed by confocal microscopy.

Bcl-2 = target: T1, Bcl-2 (Homo sapiens, UniProt P10415); experiment: GST pull-down assay; assay type: binding
T1 construct: expressed in transfected cells; host or cells: HEK293T
Description: (§1) TR3/Bcl-2 interaction assays—Reporter gene assays using NurRE-tk-CAT in CV-1 cells, and GST pull-down assay were described previously (Li, et al. 2000 Science 289, 1159-1164). For the mammalian two-hybrid assays, CV-1 cells were co-transfected with pcDNA-Gal4TAD-TR3 or pcDNA-Gal4TAD-TR3/ΔDBD and pcDNA-Gal4DBD-Bcl-2/ΔTM along with a luciferase reporter gene driven by four copies of the Gal4-binding site. The cells were harvested and reporter gene activity was measured. For Co-IP assays, HEK293T cells were transiently transfected with various expression plasmids using a modified calcium phosphate precipitation method (Wu et al, 1997) in the presence of caspase inhibitors (zVAD-fmk) to prevent degradation of TR3 protein due to apoptosis. Cells were suspended in lysis buffer (50 mM Tris-HCl, PH7.4; 150 mM NaCl; 20 mM EDTA; 1% NP-40; 1 mM PMSF; 50 μg/ml Leupeptin; […]; 0.1 mM Na3VO4; and 1 mM DTT). Cells extracts were cleared by incubation with the Protein A/G plus Agarose beads (Santa Cruz) and then incubated with appropriate antibody and 30 μl of Protein A or G plus Agarose beads overnight at 4° C. […] Immunoreactive products were detected by chemiluminescence with an enhanced chemiluminescence system (ECL) (Amersham).
C. in vitro protein binding assays. […] Bound proteins were analyzed by SDS-PAGE autoradiography. ^35S-labeled Bcl-2 was pulled down by GST-TR3 but not by GST. […]

prostate cancer cells = conditions: cited from earlier work
[4] = system: lung and breast cancer cells; conditions: cited from earlier work
TR3 expression [5] = conditions: lung cancer cells; cited from earlier work
[6] = system: estrogen-dependent and -independent breast cancer cells; conditions: estrogen-dependent and -independent cell lines; cited from earlier work
Bcl-2/ΔTM = target: T2, Bcl-2/ΔTM (Homo sapiens, UniProt P10415); experiment: Mammalian two-hybrid assay in CV-1 cells; assay type: cell-based; conditions: Gal-TAD fusion co-expressed with Gal4-DBD-Bcl-2/ΔTM, 48 h
T2 construct: expressed in transfected cells; host or cells: CV-1
Description: as §1, with “DTT).” for “DTT). Cells extracts were cleared by incubation with the Protein A/G plus Agarose beads (Santa Cruz) and then incubated with appropriate antibody and 30 μl of Protein A or G plus Agarose beads overnight at 4° C.”
E. Two-hybrid assay—a two-hybrid assay was performed to assess the interaction of TR3 and Bcl-2. […] Reporter gene activity was determined 48 h later and normalized relative to β-gal activity.

T1 sequence (P10415 whole entry): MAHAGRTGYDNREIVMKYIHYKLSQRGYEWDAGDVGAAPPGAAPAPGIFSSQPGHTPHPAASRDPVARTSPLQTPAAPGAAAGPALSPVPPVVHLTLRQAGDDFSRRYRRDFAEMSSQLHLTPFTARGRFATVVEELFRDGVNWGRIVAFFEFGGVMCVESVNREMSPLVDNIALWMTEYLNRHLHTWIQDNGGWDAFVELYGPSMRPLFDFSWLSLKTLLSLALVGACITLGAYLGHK
T2 sequence (P10415 1-204 limits assumed, stated change not applied): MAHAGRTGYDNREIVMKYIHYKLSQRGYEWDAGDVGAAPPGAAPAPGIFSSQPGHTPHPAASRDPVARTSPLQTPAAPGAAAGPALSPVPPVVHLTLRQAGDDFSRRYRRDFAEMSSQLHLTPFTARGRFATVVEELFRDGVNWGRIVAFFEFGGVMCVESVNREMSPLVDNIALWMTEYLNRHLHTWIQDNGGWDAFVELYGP

CCCCCCCCCCCCCC(=O)O[C@@H]1[C@@H](C)[C@@]2(O)[C@@H](C=C(CO)C[C@]3(O)C(=O)C(C)=C[C@@H]23)[C@@H]2C(C)(C)[C@]12OC(C)=O [TPA, 12-O-tetradecanoyl phorbol-13-acetate]
TR3 expression (TR3 expression [1]): induced | TR3 immunostaining [2]: strong TR3 immunostaining | cells demonstrating colocalization of endogenous TR3 and transfected Bcl-2 [2]: Approximately 80% | co-immunoprecipitation of Bcl-2 by anti-TR3 antibody (TR3/Bcl-2 interaction): specifically co-immunoprecipitated | TR3 expression (TR3 expression [3]): induced TR3 expression

Cc1cc2c(cc1/C=C(\Br)C(=O)c1ccc(C(=O)O)cc1)C(C)(C)CCC2(C)C [MM11384, (Z)-4-[2-bromo-3-(5,6,7,8-tetrahydro-3,5,5,8,8-pentamethyl-2-naphthalenyl)propenoyl]benzoic acid]
TR3 expression (TR3 expression [1]): induced | GFP-TR3 subcellular localization (MDA-MB-231 cells): translocated to mitochondria | TR3 expression (TR3 expression [3]): induced TR3 expression

COc1cc([C@@H]2c3cc4c(cc3[C@@H](O[C@@H]3O[C@@H]5CO[C@@H](C)O[C@H]5[C@H](O)[C@H]3O)[C@H]3COC(=O)[C@H]23)OCO4)cc(OC)c1O [VP-16]
TR3 expression (TR3 expression [3]): induced TR3 expression

GST-TR3: GST fusion of TR3 immobilized on glutathione-Sepharose
binding of ^35S-labeled Bcl-2 (Bcl-2): pulled down

EGF: the mitogenic agent epidermal growth factor
TR3 expression (TR3 expression [1]): induced

O=C(O)c1ccc2cc(-c3ccc(O)c(C45CC6CC(CC(C6)C4)C5)c3)ccc2c1 [AHPN, 6-[3-(1-adamantyl)-4-hydroxyphenyl]-2-naphthalene carboxylic acid]
apoptosis of prostate cancer cells (prostate cancer cells): potently induces apoptosis | apoptosis of lung and breast cancer cells [4]: effectively induce apoptosis | TR3 expression (TR3 expression [5]): significantly induced | apoptosis of breast cancer cells [6]: effectively induces apoptosis

O=C(O)c1cc2ccc(-c3ccc(O)c(C45CC6CC(CC(C6)C4)C5)c3)cc2cc1Cl [MM11453, 6-[3-(1-adamantyl)-4-hydroxyphenyl]-3-chloro-2-naphthalenecarboxylic acid]
TR3 expression (TR3 expression [1]): significantly induced | GFP-TR3 subcellular localization (MDA-MB-231 cells): translocated to mitochondria | TR3 expression (TR3 expression [3]): induced TR3 expression | apoptosis of breast cancer cells [6]: effectively induces apoptosis

TR3: orphan receptor TR3, nuclear transcription factor
Gal4 reporter gene activity (Bcl-2/ΔTM): strongly activated

CNc1ccc2oc(C[C@H]3O[C@@]4(CC[C@H]3C)O[C@H]([C@H](C)C(=O)c3ccc[nH]3)[C@H](C)C[C@H]4C)nc2c1C(=O)O [A23187]
TR3 expression (TR3 expression [3]): induced TR3 expression
